Laboratory results as given in ChEMBL document CHEMBL3885881, “DrugMatrix”.

Organism: Rattus norvegicus
Test: DrugMatrix - Regimen: Daily Repeat
Type: toxicity, organism-based, Sprague-Dawley
Parameters: regimen Daily Repeat, gender Male, age 6-8 weeks
Details: in vivo, po, route oral GAVAGE; for TOTAL BILIRUBIN / TOTAL PROTEIN / URIC ACID / ALANINE AMINOTRANSFERASE / ALBUMIN / ALKALINE PHOSPHATASE / ASPARTATE AMINOTRANSFERASE / BLOOD UREA NITROGEN / CARBON DIOXIDE / CHLORIDE / CHOLESTEROL / CREATINE PHOSPHOKINASE / CREATININE / GLUCOSE / LIPASE / PHOSPHORUS / POTASSIUM / SODIUM / LACTATE DEHYDROGENASE: tissue Plasma; for ABSOLUTE BASOPHIL / ABSOLUTE EOSINOPHIL / ABSOLUTE LYMPHOCYTE / ABSOLUTE MONOCYTE / BASOPHIL / EOSINOPHIL / ERYTHROCYTE COUNT / HEMATOCRIT / HEMOGLOBIN / LEUKOCYTE COUNT / LYMPHOCYTE / MEAN CORPUSCULAR HEMOGLOBIN / MEAN CORPUSCULAR HEMOGLOBIN CONCENTRATION / MEAN CORPUSCULAR VOLUME / MONOCYTE / NEUTROPHIL / PLATELET COUNT: tissue Blood
[1] = 40 mg/kg, 72 h, dose level Low, time 3 day, […]
[2] = 40 mg/kg, 120 h, dose level Low, time 5 day, […]
[3] = 40 mg/kg, […], dose level Low, time 14 day
[4] = 75 mg/kg, 72 h, dose level High, time 3 day, vehicle 100 % WATER
[5] = 75 mg/kg, 120 h, dose level High, time 5 day, vehicle 100 % WATER

For `C=CCN` [ALLYLAMINE], the “TOTAL BILIRUBIN” value [1] was 0.37 mg/dL, the “TOTAL PROTEIN” value [1] was 6.2 G/DL and the “URIC ACID” value [1] was 0.87 mg/dL. For the same compound, the ABSOLUTE BASOPHIL [2] was 43.3 cells/µL, the ABSOLUTE EOSINOPHIL [2] was 90 cells/µL and the ABSOLUTE LYMPHOCYTE [2] was 7670 cells/µL. For the same compound, the ABSOLUTE MONOCYTE [2] was 220 cells/µL, the BASOPHIL [2] was 0.4% and the EOSINOPHIL [2] was 0.87%. The “ERYTHROCYTE COUNT” value [2] was 6.74 x10E6/uL, the HEMATOCRIT [2] was 45.3% and the HEMOGLOBIN [2] was 14.1 G/DL. For the same compound, the “LEUKOCYTE COUNT” value [2] was 9.63 x10E3/uL, the LYMPHOCYTE [2] was 79.33% and the “MEAN CORPUSCULAR HEMOGLOBIN” value [2] was 20.87 pg. For the same compound, the “MEAN CORPUSCULAR HEMOGLOBIN CONCENTRATION” value [2] was 31 G/DL, the “MEAN CORPUSCULAR VOLUME” value [2] was 67.23 fL and the MONOCYTE [2] was 2.27%. For the same compound, the NEUTROPHIL [2] was 16.57%, the “PLATELET COUNT” value [2] was 1351.33 x10E3/uL and the “ALANINE AMINOTRANSFERASE” value [2] was 42.33 u/L. The ALBUMIN [2] was 4.03 G/DL, the “ALKALINE PHOSPHATASE” value [2] was 470.67 u/L and the “ASPARTATE AMINOTRANSFERASE” value [2] was 72.67 u/L. The “BLOOD UREA NITROGEN” value [2] was 16 mg/dL, the “CARBON DIOXIDE” value [2] was 41 mmol/L and the CHLORIDE [2] was 105.33 MEQ/L. For the same compound, the CHOLESTEROL [2] was 72 mg/dL, the “CREATINE PHOSPHOKINASE” value [2] was 350.33 u/L and the CREATININE [2] was 0.53 mg/dL. The GLUCOSE [2] was 155.33 mg/dL, the LIPASE [2] was 249.67 u/L and the PHOSPHORUS [2] was 9.53 mg/dL. The POTASSIUM [2] was 6.27 MEQ/L, the SODIUM [2] was 147.33 MEQ/L and the “TOTAL BILIRUBIN” value [2] was 0.47 mg/dL. The “TOTAL PROTEIN” value [2] was 6.63 G/DL, the “URIC ACID” value [2] was 0.9 mg/dL and the ABSOLUTE BASOPHIL [3] was 50 cells/µL. It also gave an ABSOLUTE EOSINOPHIL [3] of 42 cells/µL, an ABSOLUTE LYMPHOCYTE [3] of 10000 cells/µL and an ABSOLUTE MONOCYTE [3] of 250 cells/µL. The BASOPHIL [3] was 0.38%, the EOSINOPHIL [3] was 0.34% and the “ERYTHROCYTE COUNT” value [3] was 7.47 x10E6/uL. For the same compound, the HEMATOCRIT [3] was 46.98%, the HEMOGLOBIN [3] was 15.52 G/DL and the “LEUKOCYTE COUNT” value [3] was 12.8 x10E3/uL. For the same compound, the LYMPHOCYTE [3] was 78.9%, the “MEAN CORPUSCULAR HEMOGLOBIN” value [3] was 20.78 pg and the “MEAN CORPUSCULAR HEMOGLOBIN CONCENTRATION” value [3] was 33.02 G/DL. The “MEAN CORPUSCULAR VOLUME” value [3] was 62.96 fL, the MONOCYTE [3] was 1.9% and the NEUTROPHIL [3] was 17.96%. The “PLATELET COUNT” value [3] was 1148.8 x10E3/uL, the “ALANINE AMINOTRANSFERASE” value [3] was 29 u/L and the ALBUMIN [3] was 4.18 G/DL. The “ALKALINE PHOSPHATASE” value [3] was 389.8 u/L, the “ASPARTATE AMINOTRANSFERASE” value [3] was 69.2 u/L and the “BLOOD UREA NITROGEN” value [3] was 13.8 mg/dL. For the same compound, the “CARBON DIOXIDE” value [3] was 44.6 mmol/L, the CHLORIDE [3] was 102.4 MEQ/L and the CHOLESTEROL [3] was 74.2 mg/dL. The “CREATINE PHOSPHOKINASE” value [3] was 240 u/L, the CREATININE [3] was 0.76 mg/dL and the GLUCOSE [3] was 131.8 mg/dL. For the same compound, the “LACTATE DEHYDROGENASE” value [3] was 199 u/L, the LIPASE [3] was 11.2 u/L and the PHOSPHORUS [3] was 9.98 mg/dL. The POTASSIUM [3] was 6.2 MEQ/L, the SODIUM [3] was 145.8 MEQ/L and the “TOTAL BILIRUBIN” value [3] was 0.4 mg/dL. For the same compound, the “TOTAL PROTEIN” value [3] was 6.92 G/DL, the “URIC ACID” value [3] was 0.58 mg/dL and the BASOPHIL [4] was 0.63%. For the same compound, the EOSINOPHIL [4] was 0.23%, the “ERYTHROCYTE COUNT” value [4] was 6.73 x10E6/uL and the HEMATOCRIT [4] was 44.27%. For the same compound, the HEMOGLOBIN [4] was 14.4 G/DL, the “LEUKOCYTE COUNT” value [4] was 16.4 x10E3/uL and the LYMPHOCYTE [4] was 77.37%. The “MEAN CORPUSCULAR HEMOGLOBIN” value [4] was 21.43 pg, the “MEAN CORPUSCULAR HEMOGLOBIN CONCENTRATION” value [4] was 32.6 G/DL and the “MEAN CORPUSCULAR VOLUME” value [4] was 65.77 fL. For the same compound, the MONOCYTE [4] was 2.5%, the NEUTROPHIL [4] was 16.67% and the “PLATELET COUNT” value [4] was 1260.67 x10E3/uL. For the same compound, the “ALANINE AMINOTRANSFERASE” value [4] was 39 u/L, the ALBUMIN [4] was 3.9 G/DL and the “ALKALINE PHOSPHATASE” value [4] was 237 u/L. The “ASPARTATE AMINOTRANSFERASE” value [4] was 74.33 u/L, the “BLOOD UREA NITROGEN” value [4] was 13.67 mg/dL and the “CARBON DIOXIDE” value [4] was 24.67 mmol/L. The CHLORIDE [4] was 108 MEQ/L, the CHOLESTEROL [4] was 104.33 mg/dL and the “CREATINE PHOSPHOKINASE” value [4] was 169 u/L. The CREATININE [4] was 0.4 mg/dL, the GLUCOSE [4] was 146 mg/dL and the “LACTATE DEHYDROGENASE” value [4] was 59 u/L. The LIPASE [4] was 35.33 u/L, the PHOSPHORUS [4] was 11.03 mg/dL and the POTASSIUM [4] was 5.8 MEQ/L. For the same compound, the SODIUM [4] was 151 MEQ/L, the “TOTAL BILIRUBIN” value [4] was 0.23 mg/dL and the “TOTAL PROTEIN” value [4] was 6.07 G/DL. The “URIC ACID” value [4] was 1.93 mg/dL, the BASOPHIL [5] was 0.35% and the EOSINOPHIL [5] was 0.7%. The “ERYTHROCYTE COUNT” value [5] was 6.38 x10E6/uL, the HEMATOCRIT [5] was 42.1% and the HEMOGLOBIN [5] was 13.35 G/DL. The “LEUKOCYTE COUNT” value [5] was 11.54 x10E3/uL, the LYMPHOCYTE [5] was 82.75% and the “MEAN CORPUSCULAR HEMOGLOBIN” value [5] was 20.9 pg. For the same compound, the “MEAN CORPUSCULAR HEMOGLOBIN CONCENTRATION” value [5] was 31.65 G/DL, the “MEAN CORPUSCULAR VOLUME” value [5] was 66.05 fL and the MONOCYTE [5] was 2%. For the same compound, the NEUTROPHIL [5] was 6.45%, the “PLATELET COUNT” value [5] was 1169 x10E3/uL and the “ALANINE AMINOTRANSFERASE” value [5] was 28.5 u/L. The ALBUMIN [5] was 4 G/DL, the “ALKALINE PHOSPHATASE” value [5] was 238.5 u/L and the “ASPARTATE AMINOTRANSFERASE” value [5] was 69.5 u/L. For the same compound, the “BLOOD UREA NITROGEN” value [5] was 17.5 mg/dL, the “CARBON DIOXIDE” value [5] was 23 mmol/L and the CHLORIDE [5] was 107.5 MEQ/L. For the same compound, the CHOLESTEROL [5] was 62 mg/dL, the “CREATINE PHOSPHOKINASE” value [5] was 269 u/L and the CREATININE [5] was 0.25 mg/dL. For the same compound, the GLUCOSE [5] was 145 mg/dL, the “LACTATE DEHYDROGENASE” value [5] was 62 u/L and the LIPASE [5] was 19 u/L. For the same compound, the PHOSPHORUS [5] was 13.95 mg/dL, the POTASSIUM [5] was 7.05 MEQ/L and the SODIUM [5] was 149.5 MEQ/L. For the same compound, the “TOTAL BILIRUBIN” value [5] was 0.4 mg/dL, the “TOTAL PROTEIN” value [5] was 6.15 G/DL and the “URIC ACID” value [5] was 2.85 mg/dL.
